# From patent publication US9884874B2, “Bromodomain-inhibiting compounds and pharmaceutical composition comprising same for preventing or treating a cancer” (KAINOS MEDICINE, INC., priority 2014, dated 2018)
# Legend:
# [1] = Human liver microsomal stability/clearance; type: in vitro ADME; conditions: human liver microsomes; first value of Human/Mouse cell; read-out: Liver microsomal clearance (Human)
# Protocol: (§1) Human and mouse liver microsomal clearance assays were carried out in CROWN Biosciences (Taicang, China). The human liver microsomes (Cat No. X008067, Lot No. KQB) and mouse liver microsomes (Cat No. M1000, Lot No. 1210302) were purchased from Celsis and Xenotech, respectively.
# (§2) 5 μL of test compound stock solution was diluted with 495 μL of 1:1 Methanol/Water (final concentration: 100 μM, 50% MeOH) and combined with 534 μL of the respective liver microsome solution (final concentration: 1.111 μM, 0.555% MeOH). The final concentration of the liver microsome solution was 0.7 mg protein/mL.
# (§3) Incubations of the liver microsome solutions were performed in a 96 well plate at 37° C. 90 μL of the liver microsome solutions were added to Blank, and 90 μL of working solution of the test compound was added to all plates except the Blank.
# (§4) All plates thus obtained were warmed in water bath at 37° C. for 10 min, and 10 μL of NADPH co-factor solution comprising 42 mg of β-nicotinamide adenine dinucleotide phosphate (Sigma Cat. No. N0505 Lot 020M7009V), 84 mg of isocitric acid (Sigma Cat. No. 11252 Lot 119K1099) and 0.478 mL of isocitric dehydrogenase (Sigma Cat. No. 12002 Lot 086K7055, 15 units/mg protein, warmed in water bath at 37° C. for 5 min was added to the plates. The resulting plates were incubated at 37° C. in the following order: T60 (The test compounds were incubated with the liver microsomal solution and NADPH for 60 min at 37° C.), T30 (such as for 30 min.), and T10 (such as for 10 min.). 300 μL of a cold (4° C.) stop solution (acetonitrile (ACN) including 500 nM of tolbutamide as internal standard) and 10 μL of NADPH co-factor solution to starting plate (T0: 100% of the parent compound without any reaction) were added to the plates. The reaction was stopped by adding 300 μL of the cold (4° C.) stop solution to the other plates in the following order: T10 first, then T30 and T60.
# (§5) The samples were centrifuged at 4,000 rpm for 20 min and transferred to Bioanalytical Services for liquid chromatography-mass spectrometry (LC-MS)/MS (Waters UPLC/API 4000, 10 μL injection) analysis.
# [2] = Mouse liver microsomal stability/clearance; type: in vitro ADME; conditions: mouse liver microsomes; second value of Human/Mouse cell; read-out: Liver microsomal clearance (Mouse)
# Protocol: as §1, §2, §3, §4, §5
# SK-LU-1 (adenocarcinoma) = assay: Anti-proliferative activity, SK-LU-1; type: cell-based; conditions: Homo sapiens, SKLU-1 (Adenocarcinoma), read-out: Cell proliferation, IC50
# [3] = tested on: RS4;11 (acute lymphoblastic leukemia); assay: Anti-proliferative activity, RS4;11; type: cell-based; conditions: Homo sapiens, read-out: Cell proliferation, IC50
# [4] = tested on: MOLT-4 (acute lymphoblastic leukemia); assay: Anti-proliferative activity, MOLT-4; type: cell-based; conditions: Homo sapiens, read-out: Cell proliferation, IC50
# [5] = tested on: NCI-H526 (variant small cell lung cancer); assay: Anti-proliferative activity, NCI-H526; type: cell-based; conditions: Homo sapiens, read-out: Cell proliferation, IC50
# [6] = Animal pharmacokinetics in ICR mice; type: in vivo; conditions: mouse; for AUC / MRT / clearance / bioavailability: ICR, in vivo
# Protocol: Pharmacokinetics of the compounds of 1, 2, 7, 8 11 and 15 were evaluated in ICR mice (6˜8 weeks, 20˜25 g) following intravenous (IV) administration at 10 mg/kg and per oral (PO) administration at 10 mg/kg dose level, respectively. Especially, the additional dose level of Compound 1 was 30 mg/kg.
# (§6) For serum compound analysis, blood samples were collected by cardiac puncture over 24 hr time course. 20 μL of spiked plasma was added into a 96-well plate, adding ten volumes of internal standard (IS) in acetonitrile (ACN) to the obtained precipitated protein mixed thoroughly, centrifuged at 4,000 rpm for 10 min. 150 μL of supernatant thus obtained was transferred to another pre-labeled 96-well plate, mixed with 150 μL of water. 5 μL or 10 μL of the mixture was injected into the LC-MS system under the following conditions:
# (§7) Column: API-4000+Waters UPLC (TCLM08);
# (§8) Lower limit of quantification (LLOQ) was at 1 ng/mL. Pharmacokinetic parameters of half-life (T1/2), clearance (CL), maximum plasma concentration (Cmax), mean residence time (MRT) and bioavailability (F %), plasma exposure (AUC) of the compound were calculated using Phoenix WinNonlin 6.3 (non-compartmental model).
# [7] = Pharmacokinetics in Sprague Dawley rats; type: in vivo, Sprague Dawley (SD) rats; conditions: plasma, rat
# Protocol: as §6, §7, §8
# Also, pharmacokinetics of compound 1 was evaluated in Sprague Dawley (SD) rats following IV administration at 3 mg/kg or 10 mg/kg dose level, and PO administration at 3 mg/kg or 10 mg/kg dose level, respectively.
smiles,measurement,setting,value
"COc1ccc2c(c1)C(c1ccc(Cl)cc1)=N[C@@H](COS(C)(=O)=O)c1nnc(C)n1-2 [Compound 1, (R)-(6-(4-chlorophenyl)-8-methoxy-1-methyl-4H-benzo[f]-[1,2,4]triazolo[4,3-a][1,4]diazepin-4-yl)methyl methanesulfonate]",microsomal CLint at 1 µM,[1],2.3 µL/min/mg
same,microsomal CLint at 1 µM,[2],4.7 µL/min/mg
same,IC50,SK-LU-1 (adenocarcinoma),6960 nM
same,IC50,[3],3140 nM
same,IC50,[4],2630 nM
same,IC50,[5],2620 nM
same,AUC,"[6]; IV, 10 mg/kg",74 µM·h
same,MRT,"[6]; IV, 10 mg/kg",4.7 h
same,clearance,"[6]; IV, 10 mg/kg",5.1 mL/min/kg
same,AUC,"[6]; IV, 30 mg/kg",302 µM·h
same,clearance,"[6]; IV, 30 mg/kg",3.7 mL/min/kg
same,AUC,"[6]; PO, 10 mg/kg",76 µM·h
same,MRT,"[6]; PO, 10 mg/kg",6.2 h
same,bioavailability,"[6]; PO, 10 mg/kg",103%
same,AUC,"[6]; PO, 30 mg/kg",260 µM·h
same,bioavailability,"[6]; PO, 30 mg/kg",86.2%
same,dose linearity in plasma exposure (in words),"[6]; FIG. 1, 10 and 30 mg/kg",good dose linearity in plasma exposure
same,AUC,"[7]; IV, 3 mg/kg",2 µM·h
same,clearance,"[7]; IV, 3 mg/kg",54.8 mL/min/kg
same,AUC,"[7]; IV, 10 mg/kg",15.4 µM·h
same,MRT,"[7]; IV, 10 mg/kg",1.86 h
same,clearance,"[7]; IV, 10 mg/kg",24.9 mL/min/kg
same,AUC,"[7]; PO, 3 mg/kg",1 µM·h
same,bioavailability,"[7]; PO, 3 mg/kg",50.6%
same,AUC,"[7]; PO, 10 mg/kg",13.6 µM·h
same,bioavailability,"[7]; PO, 10 mg/kg",88.6%
